Test system: ERK1/2 phosphorylation through MrgprA3
Assay: Immunoblot of ERK1/2 phosphorylation in HEK293T cells expressing MrgprA3
Type: cell-based, mouse
Details: HEK-MrgprA3 cells, 30 μM BBM for 10 min prior to CQ

SMILES: COc1cc2c3cc1Oc1c(OC)c(OC)cc4c1[C@@H](Cc1ccc(O)c(c1)Oc1ccc(cc1)C[C@@H]3N(C)CC2)N(C)CC4 [berbamine]
- effect on CQ-induced ERK1/2 phosphorylation through MrgprA3: significantly reduced
